Source: patent publication EP1681292A1, “3-Amino-6-aryl(or 6-heteroaryl)-thieno¬2,3-b|pyridin-2-carboxylic acid amides, pharmaceutical compositions comprising the said and their use as inhibitors of TNFalpha release” (IBFB Pharma GmbH, priority 2005, dated 2006)
pEC50: −log10 of the molar value.

System: TNFα-Freisetzung
Experiment: Inhibition of TNFα release after LPS stimulation of human whole blood (ELISA)
Type: cell-based
Conditions: human whole blood diluted 1:5 with RPMI 1640, LPS (Salmonella abortus equi) 1 µg/ml, 24 h at 37°C, TNFα in supernatant by ELISA; read-out: Hemmung der TNFα-Freisetzung, EC50
From the text: Methodenbeschreibung der Hemmung der TNFα Freisetzung nach LPS Stimulation von humanem Vollblut
Die Stimulierung isolierter Leukozyten für die Freisetzung von Zytokinen kann auf verschiedenen Wegen erfolgen. Lipopolysaccharide (LPS) stellen einen Stimulus für die Untersuchung der Freisetzung von TNFα dar. LPS ist Bestandteil bakterieller Zellwände und wird beim Abtöten der Bakterien (durch Antibiotika oder das natürliche Immunsystem) freigesetzt. LPS stimuliert insbesondere die Aktivität phagozytierender Leukozyten (Gewebsmakrophagen, Granulozyten, Monozyten) und verursacht die Infiltration von Leukozyten vom peripheren Blut in das betroffene Gewebe. Ein Zytokin von besonderer Bedeutung für diese Mechanismen ist TNFα, das in großen Mengen durch die betroffenen Zellen sezerniert wird. Hauptquelle dabei sind Monozyten und Makrophagen. TNFα initiiert und prolongiert den Entzündungsprozess im Zusammenspiel mit anderen Mediatoren.
Für die Untersuchung des Effektes auf die LPS-induzierte TNFα-Freisetzung wurde eine Methode verwendet, die von MARX et al. (Marx D, Tassabehji M, Heer S, Hüttenbrink KB, Szelenyi I (2002) Pulmonary Pharmacology & Therapeutics 15 7-15) beschrieben wurde. Die Methodenbeschreibung in verkürzter Darstellung: Humanes Blut verschiedener Spendern wird durch Zusatz von 10 mM Na-Citrat ungerinnbar gemacht und 1:5 mit RPMI 1640 Zellkulturmedium verdünnt. Die Verbindungen der allgemeinen Formel 1 sowie die Kontrollsubstanzen (z.B. Dexamethason) wurden den Blutproben in verschiedenen Konzentrationen hinzugefügt. 15 Minuten später wurden die Leukozyten durch Zusatz von Lipopolysacchariden (LPS) (aus Salmonella abortus equi) in einer Endkonzentration von 1 µg/ml stimuliert. Nach Inkubation der Testansätze für 24 Stunden bei 37°C. und unter 5% CO2 in wassergesättigter Luft, wurde das Blut zentrifugiert und die Konzentration an TNFα im zellfreien Überstand unter Verwendung eines käuflichen ELISA (BD Biosciences) nach Angaben des Herstellers exakt vermessen.

Row | Structure (SMILES) | pEC50
1 | CSc1ccc(-c2cc(C)c3c(N)c(C(N)=O)sc3n2)cc1 [3-Amino-4-methyl-6-(4-methylthio-phenyl)-thieno[2,3-b]pyridin-2-carbonsäureamid] | > 8.30
2 | NC(=O)c1sc2nc(-c3cccs3)cc(C(F)(F)F)c2c1N [3-Amino-6-(2-thienyl)-4-trifluormethyl-thieno[2,3-b]pyridin-2-carbonsäureamid] | > 8.30
3 | Cc1cc(-c2ccc3c(c2)OCCO3)nc2sc(C(N)=O)c(N)c12 [3-Amino-6-(3,4-dioxoethylen-phenyl)-4-methyl-thieno[2,3-b]pyridin-2-carbonsäureamid] | > 8.30
4 | NC(=O)c1sc2nc(-c3ccc4c(c3)OCCO4)cc(C(F)(F)F)c2c1N [3-Amino-6-(3,4-dioxoethylen-phenyl)-4-trifluormethyl-thieno[2,3-b]pyridin-2-carbonsäureamid] | > 8.30
5 | Cc1cc(-c2ccc(Cl)cc2)nc2sc(C(N)=O)c(N)c12 [3-Amino-6-(4-chlor-phenyl)-4-methyl-thieno[2,3-b]pyridin-2-carbonsäureamid] | > 8.30
6 | CSc1ccc(-c2cc(C(F)(F)F)c3c(N)c(C(N)=O)sc3n2)cc1 [3-Amino-6-(4-methylthio-phenyl)-4-trifluormethyl-thieno[2,3-b]pyridin-2-carbonsäureamid] | > 8.30
7 | Cc1cccc(-c2cc(C)c3c(N)c(C(N)=O)sc3n2)c1 [Beispiel 2, 3-Amino-4-methyl-6-(3-methyl-phenyl)-thieno[2,3-b]pyridin-2-carbonsäureamid] | > 8.30
8 | Cc1ccc(-c2cc(C)c3c(N)c(C(N)=O)sc3n2)cc1 [Beispiel 3, 3-Amino-4-methyl-6-(4-methyl-phenyl)-thieno[2,3-b]pyridin-2-carbonsäureamid] | > 8.30
9 | COc1ccc(-c2cc(C)c3c(N)c(C(N)=O)sc3n2)cc1 [Beispiel 4, 3-Amino-4-methyl-6-(4-methoxy-phenyl)-thieno[2,3-b]pyridin-2-carbonsäureamid] | > 8.30
10 | Cc1cc(-c2ccc(F)cc2)nc2sc(C(N)=O)c(N)c12 [Beispiel 6, 3-Amino-6-(4-fluor-phenyl)-4-methyl-thieno[2,3-b]pyridin-2-carbonsäureamid] | > 8.30
11 | Cc1cc(-c2ccc(Br)cc2)nc2sc(C(N)=O)c(N)c12 [Beispiel 7, 3-Amino-6-(4-brom-phenyl)-4-methyl-thieno[2,3-b]pyridin-2-carbonsäureamid] | > 8.30
12 | Cc1cc(-c2ccccc2)nc2sc(C(N)=O)c(N)c12 [Beispiel 8, 3-Amino-4-methyl-6-phenyl-thieno[2,3-b]pyridin-2-carbonsäureamid] | > 8.30
13 | Cc1cc(-c2ccc3c(c2)OCO3)nc2sc(C(N)=O)c(N)c12 [Beispiel 9, 3-Amino-6-(3,4-dioxomethylen-phenyl)-4-methyl-thieno[2,3-b]pyridin-2-carbonsäureamid] | > 8.30
14 | Cc1cc(-c2cccs2)nc2sc(C(N)=O)c(N)c12 [Beispiel 10, 3-Amino-4-methyl-6-(2-thienyl)-thieno[2,3-b]pyridin-2-carbonsäureamid] | > 8.30
15 | Cc1ccc(-c2cc(C(F)F)c3c(N)c(C(N)=O)sc3n2)cc1 [Beispiel 11, 3-Amino-4-difluormethyl-6-(4-methyl-phenyl)-thieno[2,3-b]pyridin-2-carbonsäureamid] | > 8.30
16 | CC(C)c1ccc(-c2cc(C(F)(F)F)c3c(N)c(C(N)=O)sc3n2)cc1 [Beispiel 12, 3-Amino-6-(4-isopropyl-phenyl)-4-trifluormethyl-thieno[2,3-b]pyridin-2-carbonsäureamid] | > 8.30

Row | Structure (SMILES) | pEC50
17 | NC(=O)c1sc2nc(-c3ccccc3)cc(C(F)(F)F)c2c1N [Beispiel 13, 3-Amino-6-phenyl-4-trifluormethyl-thieno[2,3-b]pyridin-2-carbonsäureamid] | > 8.30
18 | Cc1ccc(-c2cc(C(F)(F)F)c3c(N)c(C(N)=O)sc3n2)cc1 [Beispiel 14, 3-Amino-6-(4-methyl-phenyl)-4-trifluormethyl-thieno[2,3-b]pyridin-2-carbonsäureamid] | > 8.30
19 | CCc1ccc(-c2cc(C(F)(F)F)c3c(N)c(C(N)=O)sc3n2)cc1 [Beispiel 15, 3-Amino-6-(4-ethyl-phenyl)-4-trifluormethyl-thieno[2,3-b]pyridin-2-carbonsäureamid] | > 8.30
20 | CCCc1ccc(-c2cc(C(F)(F)F)c3c(N)c(C(N)=O)sc3n2)cc1 [Beispiel 16, 3-Amino-6-(4-propyl-phenyl)-4-trifluormethyl-thieno[2,3-b]pyridin-2-carbonsäureamid] | > 8.30
21 | Cc1ccc(-c2cc(C(F)(F)F)c3c(N)c(C(N)=O)sc3n2)cc1C [Beispiel 18, 3-Amino-6-(3,4-dimethyl-phenyl)-4-trifluormethyl-thieno[2,3-b]pyridin-2-carbonsäureamid] | > 8.30
22 | COc1ccc(-c2cc(C(F)(F)F)c3c(N)c(C(N)=O)sc3n2)cc1 [Beispiel 19, 3-Amino-6-(4-methoxy-phenyl)-4-trifluormethyl-thieno[2,3-b]pyridin-2-carbonsäureamid] | > 8.30
23 | CCOc1ccc(-c2cc(C(F)(F)F)c3c(N)c(C(N)=O)sc3n2)cc1 [Beispiel 20, 3-Amino-6-(4-ethoxy-phenyl)-4-trifluormethyl-thieno[2,3-b]pyridin-2-carbonsäureamid] | > 8.30
24 | NC(=O)c1sc2nc(-c3ccc(F)cc3)cc(C(F)(F)F)c2c1N [Beispiel 21, 3-Amino-6-(4-fluor-phenyl)-4-trifluormethyl-thieno[2,3-b]pyridin-2-carbonsäureamid] | > 8.30
25 | NC(=O)c1sc2nc(-c3ccc(Cl)cc3)cc(C(F)(F)F)c2c1N [Beispiel 22, 3-Amino-6-(4-chlor-phenyl)-4-trifluormethyl-thieno[2,3-b]pyridin-2-carbonsäureamid] | > 8.30
26 | NC(=O)c1sc2nc(-c3ccc(Br)cc3)cc(C(F)(F)F)c2c1N [Beispiel 23, 3-Amino-6-(4-brom-phenyl)-4-trifluormethyl-thieno[2,3-b]pyridin-2-carbonsäureamid] | > 8.30
27 | NC(=O)c1sc2nc(-c3ccc4ccccc4c3)cc(C(F)(F)F)c2c1N [Beispiel 25, 3-Amino-6-(2-naphthyl)-4-trifluormethyl-thieno[2,3-b]pyridin-2-carbonsäureamid] | > 8.30
28 | NC(=O)c1sc2nc(-c3ccc4c(c3)OCO4)cc(C(F)(F)F)c2c1N [Beispiel 26, 3-Amino-6-(3,4-dioxomethylen-phenyl)-4-trifluormethyl-thieno[2,3-b]pyridin-2-carbonsäureamid] | > 8.30
29 | CCc1cc(-c2ccc(C)cc2)nc2sc(C(N)=O)c(N)c12 [Beispiel 27, 3-Amino-4-ethyl-6-(4-methyl-phenyl)-thieno[2,3-b]pyridin-2-carbonsäureamid] | > 8.30
30 | CCc1cc(-c2ccc(Cl)cc2)nc2sc(C(N)=O)c(N)c12 [Beispiel 30, 3-Amino-6-(4-chlor-phenyl)-4-ethyl-thieno[2,3-b]pyridin-2-carbonsäureamid] | > 8.30
31 | CCc1cc(-c2ccc(SC)cc2)nc2sc(C(N)=O)c(N)c12 [Beispiel 31, 3-Amino-4-ethyl-6-(4-methylthio-phenyl)-thieno[2,3-b]pyridin-2-carbonsäureamid] | > 8.30
